Patent US12522599B2, “Crystal forms of acrylic acid derivatives, preparation method therefor and use thereof” (ZHEJIANG HISUN PHARMACEUTICAL CO., LTD., priority 2019, dated 2026)

Columns and labels:
[1] = Stability experiment (75% RH, 92.5% RH, 40° C., 60° C. and light for 10 days; XRPD pattern and purity); assay type: physicochemical; details: for stability (in words): 60° C. and light for 10 days
Description: X-ray powder diffraction instrument and test conditions involved in the present disclosure: the model of the X-ray diffraction instrument was Rigaku D/max-2200 Cu target; the operation method included a scanning speed of 10°/min and scanning step width of 0.01°.
High-performance liquid chromatography (HPLC) test conditions involved in the present disclosure: the model of the liquid chromatograph was Agilent 1260; the chromatographic column was Agilent Eclipse XDB C-18 250 mm*4.6 mm Sum; the detection wavelength was 280 nm; and the column temperature was 35° C.
The amorphous form of compound of formula I prepared in Preparation Example, the crystal form A of the compound of formula I prepared in Example 1, the crystal form B of the compound of formula I prepared in Example 7, and the crystal form C of the compound of formula I prepared in Example 11 were placed in 75% RH, 92.5% RH, 40° C., 60° C. and light for 10 days respectively, and the X-ray powder diffraction pattern and purity of each crystal form were measured.

Granularity experiment = assay type: physicochemical
Description: (§1) The amorphous form of compound of formula I prepared in Preparation Example, the crystal form A of the compound of formula I prepared in Example 1, the crystal form B of the compound of formula I prepared in Example 7, and the crystal form C of the compound of formula I prepared in Example 11 were measured for granularity, and the specific results are shown in the following table: […]

[2] = Flowability test (angle of repose); assay type: physicochemical
Description: as §1, with “angle of repose,” for “granularity,”

ERα = target: T1, ERα (Homo sapiens, UniProt P03372); details: as indicated in WO2017080338A1; cited from earlier work
T1 sequence (P03372 1-595): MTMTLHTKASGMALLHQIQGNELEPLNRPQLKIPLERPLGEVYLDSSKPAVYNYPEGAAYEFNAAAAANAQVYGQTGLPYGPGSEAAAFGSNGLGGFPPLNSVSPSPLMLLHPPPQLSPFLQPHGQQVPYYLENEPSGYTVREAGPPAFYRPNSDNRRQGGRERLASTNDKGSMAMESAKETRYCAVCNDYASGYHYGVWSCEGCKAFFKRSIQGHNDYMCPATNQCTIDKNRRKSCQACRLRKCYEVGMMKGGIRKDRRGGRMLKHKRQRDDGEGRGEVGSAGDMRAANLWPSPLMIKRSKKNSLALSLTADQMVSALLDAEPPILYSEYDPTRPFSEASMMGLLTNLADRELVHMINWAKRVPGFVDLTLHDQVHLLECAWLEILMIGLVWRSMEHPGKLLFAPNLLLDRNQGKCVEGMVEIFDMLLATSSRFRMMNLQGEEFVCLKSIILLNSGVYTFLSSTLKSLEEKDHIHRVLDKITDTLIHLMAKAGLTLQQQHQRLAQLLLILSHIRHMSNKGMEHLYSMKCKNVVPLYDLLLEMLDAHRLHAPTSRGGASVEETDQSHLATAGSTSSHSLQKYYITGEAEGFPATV

[3] = compared with crystal forms A, B and C

Structure (SMILES) | Purity % ([1]; 0 day) [%] | Purity % ([1]; 40° C., 10 days) [%] | Purity % ([1]; 60° C., 10 days) [%] | Purity % ([1]; 75% RH, 10 days) [%] | Purity % ([1]; 92.5% RH, 10 days) [%] | Purity % ([1]; Light, 10 days) [%] | D50 (Granularity experiment; granularity) [μm] | granularity (Granularity experiment; granularity, second column under amorphous form) [μm] | angle of repose ([2]; measurement 1) [°] | angle of repose ([2]; measurement 2) [°] | angle of repose ([2]; measurement 3) [°] | stability (in words) ([1]; 75% RH, 92.5% RH, 40° C.) | D90 (Granularity experiment; granularity) [μm] | granularity (in words) (Granularity experiment; [3]) | angle of repose (in words) [2, 3] | effect of down-regulating ERα (ERα)
C[C@@H]1Cc2c([nH]c3ccccc23)[C@@H](c2c(F)cc(/C=C/C(=O)O)cc2F)N1CC1(F)CC1 [amorphous form, (E)-3-(3,5-difluoro-4-((1R,3R)-2-((1-fluorocyclopropyl)methyl)-3-methyl-2,3,4,9-tetrahydro-1H-pyrido[3,4-b]indol-1-yl)phenyl)acrylic acid] | 95.82 | 95.80 | 95.67 | 96.22 | 96.57 | 95.55 | 3.02 | 23.01 | 43.2 | 41.9 | 42.5 |  |  | significantly smaller than that of the crystal forms A, B, and C | significantly larger than that of the crystal forms A, B and C | 
C[C@@H]1Cc2c([nH]c3ccccc23)[C@@H](c2c(F)cc(/C=C/C(=O)O)cc2F)N1CC1(F)CC1 [compound of formula I, (E)-3-(3,5-difluoro-4-((1R,3R)-2-((1-fluorocyclopropyl)methyl)-3-methyl-2,3,4,9-tetrahydro-1H-pyrido[3,4-b]indol-1-yl)phenyl)acrylic acid] |  |  |  |  |  |  |  |  |  |  |  |  |  |  |  | good effect of down-regulating ERα
C[C@@H]1Cc2c([nH]c3ccccc23)[C@@H](c2c(F)cc(/C=C/C(=O)O)cc2F)N1CC1(F)CC1 [crystal form A, (E)-3-(3,5-difluoro-4-((1R,3R)-2-((1-fluorocyclopropyl)methyl)-3-methyl-2,3,4,9-tetrahydro-1H-pyrido[3,4-b]indol-1-yl)phenyl)acrylic acid] | 99.33 | 99.27 | 99.22 | 99.31 | 99.34 | 99.27 | 16.37 |  | 30.6 | 29.6 | 30.5 | good stability | 61.86 |  |  | 

Now from value to molecule, other results behind:

Purity % ([1]; 0 day) [%] | Purity % ([1]; 40° C., 10 days) [%] | Purity % ([1]; 60° C., 10 days) [%] | Purity % ([1]; 75% RH, 10 days) [%] | Purity % ([1]; 92.5% RH, 10 days) [%] | Purity % ([1]; Light, 10 days) [%] | D50 (Granularity experiment; granularity) [μm] | granularity (Granularity experiment; granularity, second column under amorphous form) [μm] | angle of repose ([2]; measurement 1) [°] | angle of repose ([2]; measurement 2) [°] | angle of repose ([2]; measurement 3) [°] | stability (in words) ([1]; 75% RH, 92.5% RH, 40° C.) | D90 (Granularity experiment; granularity) [μm] | Structure (SMILES) | granularity (in words) (Granularity experiment; [3]) | angle of repose (in words) [2, 3] | effect of down-regulating ERα (ERα)
99.87 | 99.77 | 99.75 | 99.81 | 99.81 | 99.68 | 15.48 |  | 32.5 | 31.3 | 32.3 | good stability | 60.79 | C[C@@H]1Cc2c([nH]c3ccccc23)[C@@H](c2c(F)cc(/C=C/C(=O)O)cc2F)N1CC1(F)CC1 [crystal form B, (E)-3-(3,5-difluoro-4-((1R,3R)-2-((1-fluorocyclopropyl)methyl)-3-methyl-2,3,4,9-tetrahydro-1H-pyrido[3,4-b]indol-1-yl)phenyl)acrylic acid] |  |  | 
99.78 | 99.80 | 99.84 | 99.79 | 99.78 | 99.71 | 15.02 |  | 31.5 | 31.8 | 30.9 | good stability | 59.88 | C[C@@H]1Cc2c([nH]c3ccccc23)[C@@H](c2c(F)cc(/C=C/C(=O)O)cc2F)N1CC1(F)CC1 [crystal form C, (E)-3-(3,5-difluoro-4-((1R,3R)-2-((1-fluorocyclopropyl)methyl)-3-methyl-2,3,4,9-tetrahydro-1H-pyrido[3,4-b]indol-1-yl)phenyl)acrylic acid] |  |  | 
